Measurements taken from ChEMBL document CHEMBL1136363, “Rational approaches towards reversible inhibition of type B monoamine oxidase. Design and evaluation of a novel 5H-Indeno[1,2-c]pyridazin-5-one derivative” (Bioorg Med Chem Lett, 2003).

Target: T1, Amine oxidase [flavin-containing] A (Homo sapiens, UniProt P21397)
T1 sequence (P21397 whole entry): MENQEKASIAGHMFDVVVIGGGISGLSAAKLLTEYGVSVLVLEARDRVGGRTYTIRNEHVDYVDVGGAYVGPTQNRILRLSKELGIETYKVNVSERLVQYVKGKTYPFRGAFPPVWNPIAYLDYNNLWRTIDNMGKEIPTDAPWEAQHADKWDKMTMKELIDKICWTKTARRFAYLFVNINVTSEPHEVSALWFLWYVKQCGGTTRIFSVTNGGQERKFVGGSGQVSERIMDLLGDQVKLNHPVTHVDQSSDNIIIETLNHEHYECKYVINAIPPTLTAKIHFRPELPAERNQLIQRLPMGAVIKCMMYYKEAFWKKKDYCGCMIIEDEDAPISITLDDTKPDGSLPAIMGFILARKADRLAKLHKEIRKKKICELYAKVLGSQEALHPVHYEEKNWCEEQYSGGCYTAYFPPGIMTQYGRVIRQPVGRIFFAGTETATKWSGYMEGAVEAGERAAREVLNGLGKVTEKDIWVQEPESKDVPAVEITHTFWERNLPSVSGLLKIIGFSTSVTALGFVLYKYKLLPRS
Test: Inhibitory concentration against Monoamine oxidase A in human placenta.

Ki: ~100 µM
Compound: Cc1cc2c(nn1)-c1cc(OCCCC(F)(F)F)ccc1C2=O
